US20190030042A1, “Method for Treating Dementia with Lewy Bodies” (BrainX CORPORATION, priority 2017, published 2019)

Test system: DLB rats
Experiment: Object recognition test in DLB rats
Assay type: in vivo, rat
Conditions: group A3, 100 mg/kg/day IP for 27 days, test on 27th day, p<0.05
Experimental: Saline is also used to be administrated to the normal rats of group A1.
Recognition ability of the rats of groups A1-A3 is measured using the object recognition test (Ho et al., Behav Brain Res 268: 177-184, 2014). Specifically, on the 25th & 26th day, the rat “M” under the test is placed in an open box, shown as FIG. 2a, for 5 minutes. Three flavorless objects (objects O1, O2 & O3) with the same size, color, shape and material are respectively fixed at three corners of the open box.
On the 27th day, the rat “M” under the test is first placed in the open box shown as FIG. 2a, and the time spent exploring the object O1 (T01) and the total time spent exploring the objects O1, O2 & O3 (TO1+O2+O3) are recorded, respectively. The percentage of the exploration time spent on the object O1 is calculated as (TO1/TO1+O2+O3)*100%. After 5 minutes, a novel object O4 with different size, color, shape and material is used to replace the object O1 (shown in FIG. 2b), and the rat “M” under the test is placed in the open box. The time spent exploring the novel object O4 (TO4) and the total time spent exploring the objects O2 & O3 and the novel object O4 (TO2+O3+O4) are respectively recorded, and the percentage of the exploration time spent on the novel object O4 is calculated as (TO4/TO2+O3+O4)*100%.

In the case of `CO/N=C(\C(=O)N[C@@H]1C(=O)N2C(C(=O)O)=C(CSc3nc(=O)c(=O)[nH]n3C)CS[C@H]12)c1csc(N)n1` [ceftriaxone], the “recognition of the novel object O4 (percentage of time exploring object)” value is reported as “can recognize the novel object O4”.
